Laboratory results as given in PubChem BioAssay (NCI).
Where “and” joins values, the source holds several entries; their conditions need not be identical. Equal values may be shown once.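 Each compound was tested at five concentrations against cells in 96-well plates for 48 hours. The concentration for 50% growth inhibition is given as GI50. Definition used: TGI = concentration required for complete inhibition of growth.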

Legend:
Experiment in all cases: DTP human tumour cell line panel, 48 h
MDA-N = tested on: MDA-N
SNB-78 CNS = tested on: SNB-78 CNS
DMS 273 small cell lung = tested on: DMS 273 small cell lung
XF 498 CNS = tested on: XF 498 CNS
M19-MEL melanoma = tested on: M19-MEL melanoma
DMS 114 small cell lung = tested on: DMS 114 small cell lung
LXFL 529 NSCLC = tested on: LXFL 529 NSCLC
HOP-18 NSCLC = tested on: HOP-18 NSCLC
RXF-631 renal = tested on: RXF-631 renal

SMILES | TGI (MDA-N) | TGI (SNB-78 CNS) [µM] | TGI (DMS 273 small cell lung) | TGI (XF 498 CNS) | TGI (M19-MEL melanoma) [µM] | TGI (DMS 114 small cell lung) [µM] | TGI (LXFL 529 NSCLC) [µM] | TGI (HOP-18 NSCLC) [µM] | other results
CC(C)(C)NCc1cc(C(C)(C)C)cc(-c2ccc(Cl)cc2)c1O | 31.4 µM | – | – | – | – | – | – | – | –
Cc1ccc(S(=O)(=O)NC(=O)NC23CC4CC(CC(F)(C4)C2)C3)cc1 | – | > 100 | > 100 µM | > 100 µM | > 100 | > 100 | > 100 | – | –
CO/C1=C\C(C)=C\C(C)C(O)C(C)C/C(C)=C/C=C/C(OC)C(C(C)C(O)C(C)C2(O)CC(O)C(C)C(C(C)C)O2)OC1=O (stereo not drawn) | – | 25 | 0.0107 µM and 0.0233 µM | 0.0849 µM and 0.0294 µM | 3.12 | 10.3 | – | 21.9 | GI50 (XF 498 CNS): 0.0122 µM
CC[C@@]1(O)C(=O)NCc2c1cc1n(c2=O)Cc2cc3c(N)cccc3nc2-1 | 28.1 µM | – | – | – | – | – | – | – | GI50 (MDA-N): 3.4 µM
COc1cccc(C(=O)N2CCc3ccccc32)c1OC | – | > 100 | > 100 µM | > 100 µM | > 100 | > 100 | > 100 | > 100 | TGI (RXF-631 renal): > 100 µM
CCOC(=O)C1(Cc2ccccc2)CCCCCN1 (stereo not drawn) | – | > 100 | > 100 µM | – | > 100 | > 100 | > 100 | > 100 | TGI (RXF-631 renal): > 100 µM
CCCCNN | > 100 µM | – | – | – | – | – | – | – | –
OCCSCc1ccccc1 | > 100 µM | – | – | – | – | – | – | – | –
CN(C)N1C(=O)c2ccccc2NC1c1ccccc1 (stereo not drawn) | > 100 µM | – | – | – | – | – | – | – | –
COC(=O)c1sc(C(=O)OC)c2c1CSC2 | > 100 µM | > 100 | > 100 µM | 81.6 µM | > 100 | > 100 | > 100 | > 100 | TGI (RXF-631 renal): > 100 µM
CC(C)c1ccc(/C(C(=O)O)=C(\O)C(=O)O)cc1 | > 100 µM | – | – | – | – | – | – | – | –
NC(=O)N/N=C/C(/C=N/NC(N)=O)[N+](=O)[O-] | – | – | – | > 100 µM | > 100 | > 100 | > 100 | – | TGI (RXF-631 renal): > 100 µM
C1CCN(c2nsc(N3CCCCC3)n2)CC1 | – | > 100 | > 100 µM | – | > 100 | > 100 | > 100 | > 100 | TGI (RXF-631 renal): > 100 µM
O=C(O)/C(=C/c1c(O)ccc2ccccc12)c1csc(-c2nc(/C(=C\c3c(O)ccc4ccccc34)C(=O)O)cs2)n1 | – | 34.7 | – | – | 19.9 | 25.5 | 29.8 | – | –
COc1ccc2c(c1OC)C1=C(C2=O)c2cc3c(cc2CCN1)OCO3 | – | > 100 | 52.9 µM | 87.2 µM | > 100 | 56.7 | > 100 | > 100 | –
O=C1C[C@@H]2C(COC(=O)c3ccccc3)N(OCc3ccccc3)C[C@@H]2O1 (stereo partly drawn) | – | > 100 | > 100 µM | – | > 100 | > 100 | > 100 | > 100 | TGI (RXF-631 renal): > 100 µM
COc1cc2noc(-c3ccccc3)c2cc1OC | – | > 100 | > 100 µM | – | > 100 | > 100 | > 100 | > 100 | TGI (RXF-631 renal): > 100 µM
COCC(=O)CP(=O)(OC)OC | – | > 100 | > 100 µM | > 100 µM | > 100 | > 100 | > 100 | – | –
Cc1c(C(=O)c2ccccc2C(=O)O)c2ccccc2n1C | – | > 100 | > 100 µM | > 100 µM | > 100 | > 100 | > 100 | – | –
O=c1cc2ccccc2nn1Cc1ccccc1Cl | – | > 100 | > 100 µM | > 100 µM | > 100 | > 100 | – | > 100 | –
Cn1c(=O)nc2n(-c3cccc(F)c3)c3ccccc3nc-2c1=O | – | 68.4 | 32.8 µM | – | 5.3 | – | > 100 | > 100 | –

SMILES | TGI (MDA-N) | TGI (SNB-78 CNS) [µM] | TGI (DMS 273 small cell lung) | TGI (XF 498 CNS) | TGI (M19-MEL melanoma) [µM] | TGI (DMS 114 small cell lung) [µM] | TGI (LXFL 529 NSCLC) [µM] | TGI (HOP-18 NSCLC) [µM] | other results
CCNC(=O)C#CC(=O)NCC | – | > 100 | > 10 µM and 39.6 µM | > 100 µM | > 100 | > 100 | > 100 | > 100 | GI50 (SNB-78 CNS): > 100 µM; GI50 (DMS 273 small cell lung): > 10 µM; GI50 (M19-MEL melanoma): > 10 µM; GI50 (RXF-631 renal): > 10 µM; TGI (RXF-631 renal): > 100 µM; GI50 (DMS 114 small cell lung): > 10 µM; GI50 (HOP-18 NSCLC): > 10 µM; GI50 (LXFL 529 NSCLC): > 10 µM
O=C1C=C(Br)C(=O)C12CCc1ccccc12 (stereo not drawn) | 38 µM | 59.4 | 37.8 µM | 28.8 µM | 36.5 | 45.2 | 13.2 | 16.1 | –
CN1CCCN(C)C1c1cc([N+](=O)[O-])ccc1O | > 100 µM | – | – | – | – | – | – | – | –
CN1c2ccccc2N(C)C2C1N(C)c1ccccc1N2C (stereo not drawn) | – | > 100 | > 100 µM | 21.7 µM | 32.7 | 26 | > 100 | – | TGI (RXF-631 renal): > 100 µM
CN1NC2(CCCCC2)ON=C1c1ccccc1 | – | > 100 | – | – | – | > 100 | – | > 100 | –
COc1ccc(C(N)=O)cc1N=NN(C)C | – | – | > 100 µM | – | > 100 | – | > 100 | > 100 | –
COC1OC(CO)C(O)C(O)C1Br (stereo not drawn) | – | > 100 | > 100 µM | > 100 µM | > 100 | – | > 100 | > 100 | TGI (RXF-631 renal): > 100 µM
Cc1c(C(=O)NCCO)[n+](=O)c2cc(Cl)ccc2n1[O-] | – | > 100 | > 100 µM | – | > 100 | > 100 | > 100 | > 100 | –
CC(=O)OCCOCNC(=S)N/N=C(\C)c1cnc2ccccc2n1 | – | > 100 | > 100 µM | > 100 µM | 77.1 | 47.4 | > 100 | > 100 | –
C=C=C(CC)C(C(=O)OC)N(CC)CC (stereo not drawn) | – | > 100 | – | > 100 µM | > 100 | > 100 | > 100 | > 100 | TGI (RXF-631 renal): > 100 µM
CN(C)C(N)=NC#N | – | > 100 | > 100 µM | – | > 100 | > 100 | > 100 | > 100 | TGI (RXF-631 renal): > 100 µM
CCOc1cc2c(NCCCN(CCO)CCO)ncnc2c(OCC)c1OCC | > 100 µM | – | – | – | – | – | – | – | –
COc1cc2c3c(c1)c1cc(OC)c(OC)cc1c[n+]3CC2 | 50 µM and > 100 µM | – | – | – | – | – | – | – | GI50 (MDA-N): > 100 µM
O=c1[nH]c(=O)n(C2OC(CO)C(O)C2O)c2c1CCCC2 (stereo not drawn) | > 100 µM | – | – | – | – | – | – | – | –
CCC(=O)C(C)C1=Nc2nnc(CCCCCCCc3nnc4n3C(=O)C(C(C)C(=O)CC)=N4)n2C1=O (stereo not drawn) | – | – | – | > 100 µM | > 100 | > 100 | > 100 | > 100 | –
C[C@]1(CO)[C@H]2CC[C@@]34C=C[C@@](CO)(CC[C@H]3[C@]2(C)CC[C@H]1O)C4 | > 100 µM | – | – | – | – | – | – | – | –
CC(=O)O[C@H]1CC[C@@]2(C)C(=CC[C@H]3C4=CC=C(C(C)=O)[C@@]4(C)CCC32)C1 (stereo partly drawn) | – | > 100 | > 100 µM | – | > 100 | – | > 100 | > 100 | –
C=C1C(=O)OC2CC1C(O)C/C(C)=C/CC/C(C)=C/C(O)CC2C (stereo not drawn) | 9.53 µM | – | – | – | – | – | – | – | –
CC1(C)OC(=O)C=C([O-])O1.CC1(C)OC(=O)C=C([O-])O1.O=S(=O)([O-])c1ccc([O-])c2ncccc12.O=S(=O)([O-])c1ccc([O-])c2ncccc12.[Ti+4] | – | > 100 | > 100 µM | – | > 100 | > 100 | > 100 | > 100 | GI50 (SNB-78 CNS): > 100 µM; GI50 (DMS 273 small cell lung): > 100 µM; GI50 (M19-MEL melanoma): > 100 µM; GI50 (DMS 114 small cell lung): > 100 µM; GI50 (HOP-18 NSCLC): 26 µM; GI50 (LXFL 529 NSCLC): 67.1 µM
CC(=O)OC1CC2C(C)(C)C(=O)C=C[C@]2(C)C2CCC3(C)C(c4ccoc4)C(=O)[C@H]4O[C@]43[C@]12C (stereo partly drawn) | – | > 100 | – | – | 55.2 | > 100 | > 100 | – | –
